The results in this text go back to article PMC11079024, “Identification of a family of species-selective complex I inhibitors as potential anthelmintics” (Nature Communications, 2024).

Test [1] deals with C. elegans complex IV (cytochrome C oxidase). In words: In vitro complex IV activity assay, C. elegans mitochondria. The test is classed as biochemical, Caenorhabditis elegans. The following applies: for % Activity Complex IV: 100 µM compound, relative to solvent control, mean (SEM); for CIV Activity: 100 μM inhibitor, in vitro activity relative to solvent control, N2 C. elegans mitochondria; for Percent in vitro activity, Complex IV (single replicate Rep1-Rep4) / Percent in vitro activity, Complex IV (Mean): 100 μM of NPD compound, C. elegans mitochondria; for Percent in vitro activity, Complex IV (single replicate Rep1-Rep4): individual biological replicates; for Percent in vitro activity, Complex IV (Mean): mean of four biological replicates. The method in brief:
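Cytochrome C oxidase activity read spectrophotometrically at 550 nm (30 s intervals, 15 min) as oxidation of freshly DTT-reduced CytC. Mitochondria (0.2 mg/mL) came from adult worms of six C. elegans strains grown at 20 °C. Rates were taken from initial linear phase and normalised to solvent-control wells.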

Test [2] addresses M. musculus (heart) complex I (Mus musculus, UniProt P03888+Q91WD5+Q9DC70). The test is described as follows: biochemical. The class given is biochemical. The following applies: for pIC50: heart mitochondria. The protocol: Six 8–10-week-old C57Bl/6 female mice (Charles River) were freshly dissected, and their livers and hearts collected into separate 1.5 mL microcentrifuge tubes. Organs were flash-frozen in liquid nitrogen and stored at −80 °C prior to use. The heart of a freshly slaughtered adult cow was obtained from a local abattoir (Peel Sausage Inc.), chopped into ~1-inch cubes and collected into 50 mL falcon tubes. Falcon tubes were flash-frozen in a container of dry ice and stored at −80 °C prior to use. Isolation of mitochondria from all mammalian tissue was carried out following the protocol described above. However, due to size, the initial homogenization of tissue was performed by 15 strokes in a dounce homogenizer (mouse heart) or with several 5 s pulses in small Nutribullet blender (cow heart). All mouse protocols for mouse care and dissection were reviewed and approved by the University of Toronto Animal Care Committee, in accordance with the Canadian Council on Animal Care.
The enzymatic activities of individual ETC complexes (I-IV) were assessed spectrophotometrically in isolated mitochondria using a Varioskan LUX Multimode plate reader (ThermoFisher Scientific). Mitochondrial pellets previously isolated were thawed on ice and resuspended in ice-cold isolation buffer (250 mM sucrose, 10 mM Tris (pH 7.5), 1 mM EDTA). The BCA assay (Walker, 1994) was used to quantify the protein concentration of mitochondria suspensions; solutions were diluted to a concentration of 0.2 mg/mL for use in all assays. For the complex I assay, mitochondria pellets were freeze-thawed on ice three times to increase enzyme accessibility. […] 20 μL mitochondria suspension was then added/mixed with a pipette to initiate the reaction. Immediately following the addition of mitochondria, absorbance was measured (complex I and II: 600 nm; complex III and IV: 550 nm) in 30 s intervals over 15 min. Enzymatic activity was determined in each reaction by plotting absorbance versus time and calculating the slope of the curve during the initial linear phase of the reaction. […] Percent activity of each complex was calculated by dividing the enzyme-specific activity of each well by the enzyme-specific activity of the corresponding solvent controls.
Chemical solutions were prepared in complex I assay buffer composed of 25 mM KPi buffer (pH 7.5), 3 mg/mL bovine serum albumin (BSA), 80 μM NADH, 60 μM decylubiquinone, 160 μM DCIP, 2 μM antimycin A and 2 mM KCN.
For preliminary screens of hit compounds, compounds were screened at 100 μM; data are the average of at least three biological replicates. The complex I and II activity assays were used for additional dose-response experiments. […] For dose responses of benzimidazole analogs, data represent the average of two biological replicates. For all other dose-responses, data represent the average of at least three biological replicates.

Setting [3] is: M. musculus (heart) mitochondria, mean of replicates, read-out: percent (%) in vitro complex I activity relative to solvent control.
Setting [4] is: M. musculus (heart) mitochondria, single replicate, read-out: percent (%) in vitro complex I activity relative to solvent control.

Each structure is given as a SMILES string. pIC50: −log10 of the molar value. Where “and” joins values, the source holds several entries; their conditions need not be identical. Equal entries are not always repeated. Where two headings read alike, the source gives them in different places.

M. musculus (heart) complex I, sequence (Q91WD5 34-463): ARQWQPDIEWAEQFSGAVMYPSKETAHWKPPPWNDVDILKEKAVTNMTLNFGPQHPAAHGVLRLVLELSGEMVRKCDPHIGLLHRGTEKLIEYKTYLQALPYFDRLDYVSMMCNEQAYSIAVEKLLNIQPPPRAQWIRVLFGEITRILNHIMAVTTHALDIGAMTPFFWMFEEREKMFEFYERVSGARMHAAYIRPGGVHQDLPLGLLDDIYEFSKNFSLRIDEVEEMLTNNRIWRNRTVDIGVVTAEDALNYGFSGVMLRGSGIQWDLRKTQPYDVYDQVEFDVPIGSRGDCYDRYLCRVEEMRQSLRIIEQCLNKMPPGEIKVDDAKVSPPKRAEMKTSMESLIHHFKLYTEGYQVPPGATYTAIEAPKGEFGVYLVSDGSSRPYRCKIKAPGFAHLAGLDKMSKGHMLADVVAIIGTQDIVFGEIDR
M. musculus (heart) complex I, sequence (Q9DC70 36-224): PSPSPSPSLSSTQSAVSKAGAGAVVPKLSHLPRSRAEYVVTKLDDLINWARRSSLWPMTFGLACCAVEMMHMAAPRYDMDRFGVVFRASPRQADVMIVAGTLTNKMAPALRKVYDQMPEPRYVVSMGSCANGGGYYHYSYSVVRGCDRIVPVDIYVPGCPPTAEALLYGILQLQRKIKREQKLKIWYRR
M. musculus (heart) complex I, sequence (P03888 whole entry): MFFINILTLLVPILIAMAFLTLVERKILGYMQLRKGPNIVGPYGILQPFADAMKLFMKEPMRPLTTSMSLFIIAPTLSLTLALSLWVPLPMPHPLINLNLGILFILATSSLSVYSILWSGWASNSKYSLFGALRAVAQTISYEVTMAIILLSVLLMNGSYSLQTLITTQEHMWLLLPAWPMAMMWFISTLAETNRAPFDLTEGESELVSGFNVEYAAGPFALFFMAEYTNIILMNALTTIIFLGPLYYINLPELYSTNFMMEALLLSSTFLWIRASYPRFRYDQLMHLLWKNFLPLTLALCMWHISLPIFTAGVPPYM

As to `O=C(NCCc1ccc(Cl)cc1)c1ccccc1C(F)(F)F` [Wact-11], in test [1], the “% Activity Complex IV” value is on record as 89.00 (0.63) %; the “Percent in vitro activity, Complex IV (single replicate Rep1-Rep4)” value was 91.037% and 86.647% and 91.305% and 87.004%; the “Percent in vitro activity, Complex IV (Mean)” value worked out at 88.998%. The “CIV Activity” value in test [1] (Mean) is 88.998%. For the same molecule, the “CIV Activity” value in test [1] (single replicate) is 91.037% and 86.647% and 91.305% and 87.004%.
As for `CC(C)(C)c1ccc(CCOc2ncnc3ccccc23)cc1` [Fenazaquin, reference compound], the pIC50 in test [2] is 7.68.
For `COc1ccc(Cc2nccc3cc(OC)c(OC)cc23)cc1OC` [Papaverine, reference compound], in test [2] (setting [3]), the remaining activity at 0.125 µM came out at 92.5%, the remaining activity at 0.313 µM came out at 89.9%, the remaining activity at 0.625 µM turned out to be 89.4% and the remaining activity at 1.5 µM stood at 78.4%. In test [2] (setting [3]), the remaining activity at 3 µM stood at 63.1% and the remaining activity at 15 µM worked out at 14.4%. Moreover, in test [2] (setting [4]), the remaining activity at 0.125 µM amounted to 91.5%, the remaining activity at 0.313 µM came out at 89.5%, the remaining activity at 0.625 µM stood at 91.6% and the remaining activity at 1.5 µM was found to be 77.9%. In test [2] (setting [4]), the remaining activity at 3 µM amounted to 62.6% and the remaining activity at 15 µM was determined as 15.3%. Also, the remaining activity at 37.5 µM in test [2] (37.5 µM, M. musculus (heart) mitochondria, mean of replicates, read-out: percent (%) in vitro complex I activity relative to solvent control) came to 4.29%. Moreover, in test [2] (75 µM, M. musculus (heart) mitochondria, mean of replicates, read-out: percent (%) in vitro complex I activity relative to solvent control), the remaining activity at 75 µM stood at 1.37%. Moreover, in test [2], the pIC50 was 5.34.
`C=C(C)[C@H]1Cc2c(ccc3c2O[C@@H]2COc4cc(OC)c(OC)cc4[C@@H]2C3=O)O1` [Rotenone, reference compound]: in test [1], the “% Activity Complex IV” value is recorded as 99.57 (1.12) %; the “Percent in vitro activity, Complex IV (single replicate Rep1-Rep4)” value is 102.333% and 104.163% and 97.333% and 94.435%; the “Percent in vitro activity, Complex IV (Mean)” value was found to be 99.566%. The “CIV Activity” value in test [1] (Mean) stood at 99.566%. Besides, the “CIV Activity” value in test [1] (single replicate) was 94.435% and 102.333% and 104.163% and 97.333%.

As a reminder, the pIC50 is −log10 of the IC50, conventionally taken in molar units.
